Assay [1] deals with HspUPO. The following applies: 2 mM H2O2, McIlvaine buffer pH 5, 25 °C; glycosylated enzyme.
Assay [2] relates to HspUPO. The following applies: 2 mM H2O2, McIlvaine buffer pH 4, 25 °C; glycosylated enzyme.
In assay [3] the test system is HspUPO. The following applies: 2 mM H2O2, McIlvaine buffer pH 7, 25 °C; glycosylated enzyme.
In assay [4] the test system is HspUPO. Particulars: 2 mM H2O2, McIlvaine buffer pH 7, 25 °C; glycosylated enzyme. This is another data set of the same source.
For assay [5], the system named is HspUPO. Particulars: 2 mM H2O2, McIlvaine buffer pH 7, 25 °C; glycosylated enzyme. This is another data set of the same source.

Read-outs that look alike come from different tables or passages of the source.

Usually Km stands for the substrate concentration at which the rate is half of its maximum.

As for `COc1cccc(OC)c1O` [2,6-Dimethoxyphenol], the Km in assay [1] was found to be 57.5 ± 5 µM. Take `COc1ccc(CO)cc1OC` [2a, 3,4-Dimethoxybenzyl alcohol]: the Km in assay [2] stood at 758 ± 100 µM. As for `O=[N+]([O-])c1ccc2c(c1)OCO2` [5-Nitro-1,3-benzodioxole], in assay [3], the Km was 18 ± 3.42 µM. In the case of `c1ccc2[nH]ccc2c1` [6a, Indole], the Km in assay [4] stood at 54 ± 8.16 µM. With `OCc1ccccc1` [Benzyl alcohol], the Michaelis constant (Km) in assay [5] turned out to be 680 ± 0.14 µM.

These data come from paper PMC7611678 (ACS catalysis, 2021).
